Two compounds from patent US20210221822A1, “TRICYCLIC DERIVATIVES INHIBITOR, PREPARATION METHOD, AND APPLICATIONS THEREOF” (Jiangsu Hansoh Pharmaceutical Group Co., Ltd., priority 2018, published 2021) can be followed below.

Read-outs that look alike come from different tables or passages of the source.

One data set addresses T1, PI3Kα (Homo sapiens, UniProt P42336).
T1 construct: purchased Promega V1721
The data set is described as follows: ADP-Glo lipid kinase assay, PI3Kα kinase activity. The class given is biochemical. As for the experimental part:
(§1) Experimental method: Promega's ADP-Glo lipid kinase assay method (Promega #V9102) was applied in this experiment. Lipid kinase PI3Kα/β/γ/δ catalyzed the generation of ADP from ATP in the presence of the substrate PIP2: 3PS and ATP. The lipid kinase activity was characterized by measuring the ADP content in the reaction, and the half inhibitory concentration IC50 of the compound on inhibiting PI3Kα/β/γ/δ kinase activity was thus obtained.
(§2) The kinase reaction was carried out in a white 384-well plate (Perkin Elmer #6007299). 2 μL of the compound solution of different concentrations diluted with ddH2O containing 1% DMSO was added to each well. 2 μL of ddH2O containing 1% DMSO was added to the positive control well. 2 μL of 0.1-2 nM PI3K kinase solution diluted with 5× kinase buffer (HEPES 250 mM, MgCl2 15 mM, NaCl 250 mM, BSA 0.05%) was added to each well. 2 μL of 5× kinase buffer was added to the negative control well. 4 μL of 50 μM substrate PIP2: 3PS (Promega #V1701) formulated with 10× Dilution buffer and ddH2O was added to all wells. Finally, 2 μL of […] ATP solution diluted with water was added to start the reaction. After the reaction was carried out at room temperature for 90 to 120 minutes, 10 μL of ADP-Glo Reagent (containing 10 mM MgCl2) was added to each well, and reacted at room temperature for 60 minutes to remove excess ATP in the reaction. 20 μL of Kinase Detection Reagent was added to each well, and reacted at room temperature in the dark for 20 minutes. The chemiluminescence value was measured by the BioTek Synergy H1 microplate reader.
(§3) The percentage inhibition data of the compound-treated well was calculated through the positive control well (DMSO control well) and negative control well (no kinase added) on the plate {% inhibition rate=100−[(test compound value−negative control value)]/(positive control value−negative control value)×100}. The IC50 value was calculated by fitting the data of different concentrations and corresponding percentage inhibition rates to a four-parameter nonlinear logic formula with GraphPad prism.
In general terms: ADP-Glo turns the ADP formed in a reaction into a luminescent signal.

Data set [1] is described as follows: Toxicokinetics in the 7-day repeated intragastric administration study in SD rats. The class given is in vivo, Sprague-Dawley (SD) rats. The settings on record: for AUC: Sprague-Dawley, rat, plasma, po, read-out: average system exposure AUC. An excerpt: Liquid chromatography−mass spectrometry (detector: API4000, electrospray source (ESI) positive ion mode, column: Agilent ZORBAX XDB-C18 (3.5 μm, 2.1×50 mm)), which was used for the biological analysis of plasma sample.
(§4) 1) In the experiment, 112 rats (56 rats/sex) were divided into 14 groups by sex and body weight, wherein 70 rats were used for toxicology study (groups 1 to 7, 5 rats/sex/group) and 42 rats were used for toxicokinetics study (groups 8 to 14, 3 rats/sex/group).
(§5) 3) The animals in groups 2 and 9, groups 3 and 10, and groups 4 and 11 were intragastrically administered GDC-0077 at 10, 30 and 60 mg/kg, respectively.
(§6) 4) The animals in groups 5 and 12, groups 6 and 13, and groups 7 and 14 were intragastrically administered the compound of Example 51 at 10, 30 and 60 mg/kg, respectively.
(§7) 5) The animals were administered once a day for 7 consecutive days (the animals in groups 7 and 14 were administered for 6 consecutive days).
(§8) 7) During the experiment, items such as clinical observation, body weight, food intake, clinicopathological indicators (blood cell count, coagulation function, blood biochemistry), toxicokinetics and the like were studied.

A further data set has as its target T2, PI3Kδ (Homo sapiens, UniProt O00329).
T2 construct: purchased Carna 11-103
Nature of the data set: ADP-Glo lipid kinase assay, PI3Kδ kinase activity. The class given is biochemical. The settings on record: 0.1 nM enzyme, 90 min, 100 μM ATP. As for the experimental part: as §1, §2, §3

The target of the next data set is T3, PI3Kβ (Homo sapiens, UniProt P42338).
T3 construct: purchased Carna 11-102
T3 sequence (P42338 whole entry): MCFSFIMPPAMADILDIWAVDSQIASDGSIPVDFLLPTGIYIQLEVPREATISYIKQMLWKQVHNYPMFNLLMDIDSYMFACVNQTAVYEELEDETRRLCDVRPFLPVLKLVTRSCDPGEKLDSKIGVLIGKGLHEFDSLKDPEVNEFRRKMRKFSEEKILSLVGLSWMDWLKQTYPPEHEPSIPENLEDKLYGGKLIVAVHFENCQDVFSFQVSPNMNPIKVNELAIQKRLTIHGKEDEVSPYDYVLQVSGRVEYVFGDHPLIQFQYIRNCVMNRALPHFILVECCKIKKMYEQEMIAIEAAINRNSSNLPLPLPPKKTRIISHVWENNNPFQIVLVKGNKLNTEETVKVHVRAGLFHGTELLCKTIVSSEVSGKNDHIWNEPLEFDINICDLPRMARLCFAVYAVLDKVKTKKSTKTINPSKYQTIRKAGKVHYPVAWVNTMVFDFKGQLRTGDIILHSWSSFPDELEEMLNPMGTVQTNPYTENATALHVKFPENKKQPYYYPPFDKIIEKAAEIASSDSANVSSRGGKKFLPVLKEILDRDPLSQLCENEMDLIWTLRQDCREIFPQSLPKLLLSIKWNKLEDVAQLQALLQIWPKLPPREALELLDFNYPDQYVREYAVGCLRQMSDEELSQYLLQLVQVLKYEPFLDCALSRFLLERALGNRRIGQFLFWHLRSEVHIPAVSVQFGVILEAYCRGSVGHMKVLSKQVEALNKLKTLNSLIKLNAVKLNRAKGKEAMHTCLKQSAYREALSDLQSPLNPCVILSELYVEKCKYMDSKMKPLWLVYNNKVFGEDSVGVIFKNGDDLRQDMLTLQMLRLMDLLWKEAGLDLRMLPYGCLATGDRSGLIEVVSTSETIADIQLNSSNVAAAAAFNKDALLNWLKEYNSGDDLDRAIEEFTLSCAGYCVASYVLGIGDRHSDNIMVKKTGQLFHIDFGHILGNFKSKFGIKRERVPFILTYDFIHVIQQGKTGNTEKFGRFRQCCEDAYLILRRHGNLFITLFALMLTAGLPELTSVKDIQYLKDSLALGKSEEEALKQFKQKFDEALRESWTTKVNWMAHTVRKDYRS
T3 sequence (P27986 whole entry partner): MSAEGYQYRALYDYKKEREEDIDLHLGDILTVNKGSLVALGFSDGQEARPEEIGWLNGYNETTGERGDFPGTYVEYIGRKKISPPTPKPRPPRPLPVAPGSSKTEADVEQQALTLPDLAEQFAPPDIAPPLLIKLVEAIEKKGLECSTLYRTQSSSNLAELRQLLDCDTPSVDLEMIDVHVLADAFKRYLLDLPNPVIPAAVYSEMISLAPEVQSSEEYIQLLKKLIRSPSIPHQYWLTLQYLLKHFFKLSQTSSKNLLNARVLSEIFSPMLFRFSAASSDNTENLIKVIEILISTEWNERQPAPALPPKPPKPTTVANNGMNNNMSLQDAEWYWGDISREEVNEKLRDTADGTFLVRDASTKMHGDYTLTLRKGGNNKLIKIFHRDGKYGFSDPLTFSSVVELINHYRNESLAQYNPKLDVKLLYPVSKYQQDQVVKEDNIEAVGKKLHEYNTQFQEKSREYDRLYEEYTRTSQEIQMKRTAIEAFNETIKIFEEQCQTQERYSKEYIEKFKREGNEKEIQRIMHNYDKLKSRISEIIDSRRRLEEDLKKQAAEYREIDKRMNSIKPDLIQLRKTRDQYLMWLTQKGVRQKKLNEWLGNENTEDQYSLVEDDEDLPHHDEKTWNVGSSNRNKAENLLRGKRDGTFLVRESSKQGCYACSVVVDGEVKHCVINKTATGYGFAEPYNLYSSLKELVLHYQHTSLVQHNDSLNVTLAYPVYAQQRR
Nature of the data set: ADP-Glo lipid kinase assay, PI3Kβ kinase activity. The class given is biochemical. To be noted: 0.4 nM enzyme, 90 min, 100 μM ATP. As for the experimental part:
as §1, §2, §3

For the next data set, the target named is T4, PI3Kγ (Homo sapiens, UniProt P48736).
T4 construct: purchased Thermofisher PV4786
T4 sequence (P48736 whole entry): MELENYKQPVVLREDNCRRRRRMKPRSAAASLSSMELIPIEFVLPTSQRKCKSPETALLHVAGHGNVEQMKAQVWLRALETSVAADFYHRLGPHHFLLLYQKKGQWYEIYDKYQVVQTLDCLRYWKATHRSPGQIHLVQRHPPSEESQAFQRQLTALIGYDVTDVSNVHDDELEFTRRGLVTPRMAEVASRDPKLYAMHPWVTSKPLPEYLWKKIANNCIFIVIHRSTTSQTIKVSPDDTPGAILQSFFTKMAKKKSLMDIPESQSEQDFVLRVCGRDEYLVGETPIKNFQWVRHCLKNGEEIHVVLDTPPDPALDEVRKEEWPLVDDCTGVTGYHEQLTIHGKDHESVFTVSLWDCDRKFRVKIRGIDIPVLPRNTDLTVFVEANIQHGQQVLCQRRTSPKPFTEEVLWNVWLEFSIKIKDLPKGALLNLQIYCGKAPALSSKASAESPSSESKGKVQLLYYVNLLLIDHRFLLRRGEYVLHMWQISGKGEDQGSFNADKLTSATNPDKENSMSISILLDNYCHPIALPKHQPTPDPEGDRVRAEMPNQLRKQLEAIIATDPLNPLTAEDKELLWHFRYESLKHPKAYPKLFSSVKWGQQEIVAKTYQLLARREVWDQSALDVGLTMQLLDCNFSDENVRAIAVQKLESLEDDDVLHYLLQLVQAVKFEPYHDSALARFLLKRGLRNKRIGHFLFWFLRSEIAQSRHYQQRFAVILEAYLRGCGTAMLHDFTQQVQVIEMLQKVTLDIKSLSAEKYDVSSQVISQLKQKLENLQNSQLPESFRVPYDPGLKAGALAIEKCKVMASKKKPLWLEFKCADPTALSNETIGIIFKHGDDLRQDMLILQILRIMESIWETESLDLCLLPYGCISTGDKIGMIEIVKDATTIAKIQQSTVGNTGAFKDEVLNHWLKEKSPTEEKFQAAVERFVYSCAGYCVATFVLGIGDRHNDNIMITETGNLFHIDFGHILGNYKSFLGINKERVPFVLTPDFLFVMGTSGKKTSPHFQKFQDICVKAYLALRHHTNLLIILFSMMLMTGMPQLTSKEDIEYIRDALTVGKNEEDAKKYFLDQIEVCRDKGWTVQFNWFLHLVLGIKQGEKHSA
Nature of the data set: ADP-Glo lipid kinase assay, PI3Kγ kinase activity. The settings on record: 0.4 nM enzyme, 120 min, 50 μM ATP. The class given is biochemical. On the procedure:
as §1, §2, §3

Data set [2] can be described thus: Pharmacokinetic (PK) assay in mice. The class given is in vivo. The settings on record: male, Balb/c, mouse, plasma, po, single intragastric 5 mg/kg. On the procedure: The pharmacokinetic assay of the preferred compounds of the examples of the present invention in mice was carried out in Balb/c male mice (Shanghai Jiesijie Laboratory Animal Co., LTD). • Administration mode: single intragastric administration. • Administration dose: 5 mg/10 ml/kg (body weight). • Formulation: the compound was dissolved in 0.5% CMC-Na by ultrasound to obtain a clear solution or homogeneous suspension. • Sampling points: 0.5, 1, 2, 4, 6, 8 and 24 hours after administration. • Sample process: • 1) 0.1 mL of blood was taken from the orbit, placed in a K2-EDTA tube, and centrifuged for 5 to 20 minutes at room temperature at 1000 to 3000×g to separate the plasma, which was then stored at −80° C. • 2) 160 uL of acetonitrile was added to 40 uL of plasma sample for precipitation, and then the mixture was centrifuged for 5 to 20 minutes at 500 to 2000×g. • 3) 100 uL of processed supernatant was taken and analyzed by LC/MS/MS assay to determine the concentration of the test compound. • LC-MS/MS assay: • Liquid chromatography condition: Shimadzu LC-20AD pump • Mass spectrometry condition: AB Sciex API 4000 mass spectrometer • Chromatographic column: phenomenex Gemiu 5 μm C18 50×4.6 mm • Mobile phase: solution A was 0.1% aqueous formic acid solution, and solution B was acetonitrile • Flow rate: 0.8 mL/min • Elution time: 0-4 minutes gradient elution • Pharmacokinetics: […]
The main parameters were calculated using WinNonlin 6.1.

Data set [3] is described as follows: Toxicity test of a 7-day repeatedly intragastric administration in SD rats. The settings on record: for Body weight and food intake / Clinical observation: SD rats, 10, 30 and 60 mg/kg (low, middle, high dose); for Near-death/death: dose of 60 mg/kg; for lethal dose / MTD at 7 days: intragastric once/day for 7 days; for MTD at 7 days: both sexes, Sprague-Dawley, rat, in vivo, po, read-out: maximum tolerated dose (MTD). The class given is in vivo.
Excerpt: as §4
2) As the vehicle control group, the animals in groups 1 and 8 were intragastrically administered 20% aqueous SBE-(3-CD (Captisol) solution.
as §5, §6, §7
6) The administration volume was 10 mL/kg.
as §8
8) All animals were euthanized on Day 8 (the animals in groups 7 and 14 were euthanized after administration on Day 6).
9) During the experiment, gross anatomy observation was carried out on animals in groups 1 to 7, animals in group 14 and dead animals (including animals in toxicokinetics study), and histopathological examination was carried out on abnormal tissues, gastrointestinal tissues (such as colon and cecum) and immune tissues (such as thymus).

Setting [4] is: 10 mg/kg intragastric once a day, after the last administration, female.
Setting [5] is: 10 mg/kg intragastric once a day, after the last administration, male.
Setting [6] is: 30 mg/kg intragastric once a day, after the last administration, female.
Setting [7] is: 30 mg/kg intragastric once a day, after the last administration, male.

T1 sequence (P42336 whole entry): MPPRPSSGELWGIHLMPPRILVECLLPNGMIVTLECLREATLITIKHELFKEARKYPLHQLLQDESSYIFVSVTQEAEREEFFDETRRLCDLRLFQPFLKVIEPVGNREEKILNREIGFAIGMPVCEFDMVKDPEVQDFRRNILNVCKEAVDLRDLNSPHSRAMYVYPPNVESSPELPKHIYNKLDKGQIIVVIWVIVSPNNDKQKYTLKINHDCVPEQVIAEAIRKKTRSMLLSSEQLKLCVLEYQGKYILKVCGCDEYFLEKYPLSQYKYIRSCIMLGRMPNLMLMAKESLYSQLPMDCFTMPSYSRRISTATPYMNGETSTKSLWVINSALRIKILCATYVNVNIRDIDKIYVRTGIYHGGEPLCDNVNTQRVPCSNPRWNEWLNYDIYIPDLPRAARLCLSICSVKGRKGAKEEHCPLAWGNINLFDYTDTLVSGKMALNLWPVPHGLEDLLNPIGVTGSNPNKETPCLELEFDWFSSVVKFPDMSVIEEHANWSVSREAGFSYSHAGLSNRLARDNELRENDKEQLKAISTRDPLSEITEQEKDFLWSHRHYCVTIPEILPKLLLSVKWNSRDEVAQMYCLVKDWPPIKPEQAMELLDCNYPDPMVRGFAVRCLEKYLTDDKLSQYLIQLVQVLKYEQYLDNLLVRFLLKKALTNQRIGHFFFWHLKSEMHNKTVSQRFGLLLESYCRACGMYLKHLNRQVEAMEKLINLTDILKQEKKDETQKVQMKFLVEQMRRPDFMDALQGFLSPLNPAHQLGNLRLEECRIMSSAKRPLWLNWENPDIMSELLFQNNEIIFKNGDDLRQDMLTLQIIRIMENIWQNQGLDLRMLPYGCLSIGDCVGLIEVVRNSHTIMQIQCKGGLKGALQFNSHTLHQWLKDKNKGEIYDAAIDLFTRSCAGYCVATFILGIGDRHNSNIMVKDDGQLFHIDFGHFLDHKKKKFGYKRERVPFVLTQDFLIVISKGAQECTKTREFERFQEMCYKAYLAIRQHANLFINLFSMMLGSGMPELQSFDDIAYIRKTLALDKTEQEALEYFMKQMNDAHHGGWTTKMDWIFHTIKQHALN
T1 sequence (P27986 whole entry partner): as the sequence (P27986 whole entry partner) above
T2 sequence (O00329 whole entry): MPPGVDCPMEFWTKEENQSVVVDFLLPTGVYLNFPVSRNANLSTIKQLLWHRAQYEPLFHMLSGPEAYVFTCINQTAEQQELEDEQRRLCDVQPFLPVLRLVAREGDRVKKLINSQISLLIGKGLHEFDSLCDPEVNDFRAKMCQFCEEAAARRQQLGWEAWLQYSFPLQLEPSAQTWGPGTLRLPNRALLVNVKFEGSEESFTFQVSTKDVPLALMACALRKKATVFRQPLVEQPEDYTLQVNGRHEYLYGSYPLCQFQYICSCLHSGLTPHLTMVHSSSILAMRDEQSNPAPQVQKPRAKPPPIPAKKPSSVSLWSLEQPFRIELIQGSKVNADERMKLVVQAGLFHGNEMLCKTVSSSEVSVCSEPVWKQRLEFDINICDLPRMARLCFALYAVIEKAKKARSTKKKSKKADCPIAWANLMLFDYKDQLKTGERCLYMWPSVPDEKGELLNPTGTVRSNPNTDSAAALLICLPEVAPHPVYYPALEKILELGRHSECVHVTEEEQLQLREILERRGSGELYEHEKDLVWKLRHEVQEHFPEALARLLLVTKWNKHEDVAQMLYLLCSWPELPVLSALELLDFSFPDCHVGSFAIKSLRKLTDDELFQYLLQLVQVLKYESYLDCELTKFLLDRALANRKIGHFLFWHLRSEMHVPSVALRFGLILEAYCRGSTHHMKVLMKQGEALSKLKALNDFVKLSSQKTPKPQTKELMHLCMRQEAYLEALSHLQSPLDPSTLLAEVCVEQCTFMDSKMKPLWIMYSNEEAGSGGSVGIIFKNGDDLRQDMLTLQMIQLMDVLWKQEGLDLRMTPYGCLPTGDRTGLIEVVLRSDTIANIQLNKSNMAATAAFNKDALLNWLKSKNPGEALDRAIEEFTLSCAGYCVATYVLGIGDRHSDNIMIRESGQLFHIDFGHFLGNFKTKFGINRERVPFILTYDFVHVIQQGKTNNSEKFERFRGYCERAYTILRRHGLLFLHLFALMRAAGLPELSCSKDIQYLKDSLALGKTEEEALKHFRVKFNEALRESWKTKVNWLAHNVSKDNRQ
T2 sequence (P27986 whole entry partner): as the sequence (P27986 whole entry partner) above

A word on the IC50: it is the point on the concentration scale where inhibition reaches its midpoint. Usually AUC stands for concentration integrated over time. By MRT is commonly meant a mean duration of stay, worked out from the concentration-time curve. In general, Tmax refers to the time at which the peak concentration occurs. By MTD is commonly meant the largest dose that counted as tolerated. Turning to `C[C@H](Nc1ccc2c(c1)OCCn1cc(N3C(=O)SC[C@H]3C(F)F)nc1-2)C(N)=O` [Example 51, (S)-2-((2-((R)-4-(difluoromethyl)-2-oxothiazolidin-3-yl)-5,6-dihydrobenzo[f]imidazo[1,2-d][1,4]oxazepin-9-yl)amino)propanamide], at PI3Kα (ADP-Glo, 0.1 nM enzyme, 120 min, 50 μM ATP), the half-inhibitory concentration (IC50) was 0.2 nM. Also, the “Selectivity of PI3Kα vs PI3Kβ” value on PI3Kα (ratio of IC50 PI3Kβ to IC50 PI3Kα) stood at 840. At PI3Kα (ratio of IC50 PI3Kγ to IC50 PI3Kα), the “Selectivity of PI3Kα vs PI3Kγ” value is reported as 450. Moreover, the “Selectivity of PI3Kα vs PI3Kδ” value at PI3Kα (ratio of IC50 PI3Kδ to IC50 PI3Kα) turned out to be 245. The “Cmax and AUC(0-24h) compared with GDC-0077” value in data set [1] (30 mg/kg) was “significantly higher than those of GDC-0077”. Moreover, the AUC in data set [1] (setting [4]) was determined as 3170 ng·h/mL. For the same compound, the AUC in data set [1] (setting [5]) stood at 2110 ng·h/mL. In addition, the AUC in data set [1] (setting [6]) was determined as 15900 ng·h/mL. For the same compound, the exposure (AUC) in data set [1] (setting [7]) came to 11400 ng·h/mL. Moreover, the “system exposure compared with GDC-0077” value in data set [1] (same dose) is “significantly higher than that of GDC-0077 at the same dose”. Moreover, at PI3Kδ, the IC50 came to 49 nM. Besides, the concentration for half-maximal inhibition (IC50) on PI3Kβ amounted to 168 nM. For the same compound, at PI3Kγ, the IC50 was found to be 90 nM. Besides, the AUC(0-t) in data set [2] (read-out: Area under curve AUC0-t) is 2180 ng·h/mL. Also, the AUC(0-inf) in data set [2] (read-out: Area under curve AUC0-∞) came to 2270 ng·h/mL. The half-life in data set [2] (read-out: Half-life t1/2(h) (converted)) was 1.6 h. In addition, the mean residence time (MRT) in data set [2] (read-out: Mean residence time MRT) came out at 2.2 h. Besides, the Tmax in data set [2] (read-out: Peak time tmax) came out at 0.5 h. In addition, in data set [2] (read-out: Plasma concentration Cmax), the Cmax is 1060 ng/mL. Moreover, in data set [3] (SD rats), the “main target organs of the toxicity” value was “gastrointestinal tissues (such as stomach and cecum) and immune tissues (such as thymus)”; the “tolerance compared with GDC-0077” value is given as “better than that of GDC-0077”; the Near-death/death result is reported as “near-dead/dead animals were found”; the lethal dose worked out at 60 mg/kg. Also, the MTD at 7 days in data set [3] (SD rats) came to 30 mg/kg. Moreover, in data set [3] (SD rats, 10, 30 and 60 mg/kg), the Blood biochemistry entry is “In 60 mg/kg group, AST, Glu and UREA increased in both male and female animals; in 30 mg/kg group, AST and UREA increased in both male and female animals, and Glu increased in male animals; and in 10 mg/kg group, AST increased in both male and female animals”; the “Blood cell counting and coagulation function” value was “In each dose group, Retic decreased in both male and female animals; and in 30 mg/kg group and 60 mg/kg group, Neut increased and PLT decreased in both male and female animals”; the “Pathology, pathological changes under the microscope” value was “bleeding and atrophy of glandular gastric mucosa; bleeding of cecal mucosa, atrophy of goblet cell, atrophy of colonic mucosa goblet cell; atrophy of splenic white pulp; and atrophy of thymic cortex or cortex and medulla, increase in tingible body macrophages and the like”. Besides, in data set [3], the “Body weight and food intake” value is “In the low-dose, middle-dose and high-dose groups, the final body weight declined, and the corresponding food intake also declined”; the Clinical observation result is “In the middle-dose and high-dose groups, abnormal symptoms such as arched back, loose stools, perianal contamination and fluffy coat were observed”.

Regarding `C[C@H](Nc1ccc2c(c1)OCCn1cc(N3C(=O)OC[C@H]3C(F)F)nc1-2)C(N)=O` [GDC-0077, reference compound], the AUC in data set [1] (setting [4]) was found to be 2250 ng·h/mL. Besides, in data set [1] (setting [5]), the AUC was 845 ng·h/mL. Also, in data set [1] (setting [6]), the area under the curve (AUC) is 6510 ng·h/mL. In addition, the exposure (AUC) in data set [1] (setting [7]) was 3000 ng·h/mL. The AUC in data set [1] (60 mg/kg intragastric, after the first administration, female) worked out at 22800 ng·h/mL. For the same compound, in data set [1] (60 mg/kg intragastric, after the first administration, male), the exposure (AUC) was 15400 ng·h/mL. Besides, in data set [3] (SD rats), the “main target organs of the toxicity” value is “gastrointestinal tissues (such as stomach and cecum) and immune tissues (such as thymus)”; the Near-death/death result is recorded as “near-dead/dead animals were found”; the lethal dose came out at 60 mg/kg; the maximal tolerated dose (MTD) at 7 days stood at 30 mg/kg. Moreover, in data set [3] (SD rats, 10, 30 and 60 mg/kg), the “Blood cell counting and coagulation function” value was “In each dose group, Retic decreased in both male and female animals”; the “Pathology, pathological changes under the microscope” value was “atrophy of goblet cells in the cecal mucosa, increase in thymic tingible body macrophages, and erosion, bleeding and edema of gastric mucosal”. Moreover, in data set [3], the “Body weight and food intake” value is “In the middle-dose and high-dose groups, the final body weight of all animals declined, and their food intake also declined during the same period”; the Clinical observation result is “In the high-dose group, abnormal symptoms such as arched back, loose stools, perianal contamination and fluffy coat were observed”.
